Where two headings read alike, the source gives them in different places.
Biological target: b-Raf (V600E) (Homo sapiens (Human), UniProt P15056, V600E)
Settings: read-out: b-Raf IC-50, AlphaScreen
[1] = 60 min pre-incubation, reaction 3 hours at room temperature
[2] = 60 min pre-incubation, 3 hours reaction

b-Raf (V600E), sequence (P15056 whole entry V600E): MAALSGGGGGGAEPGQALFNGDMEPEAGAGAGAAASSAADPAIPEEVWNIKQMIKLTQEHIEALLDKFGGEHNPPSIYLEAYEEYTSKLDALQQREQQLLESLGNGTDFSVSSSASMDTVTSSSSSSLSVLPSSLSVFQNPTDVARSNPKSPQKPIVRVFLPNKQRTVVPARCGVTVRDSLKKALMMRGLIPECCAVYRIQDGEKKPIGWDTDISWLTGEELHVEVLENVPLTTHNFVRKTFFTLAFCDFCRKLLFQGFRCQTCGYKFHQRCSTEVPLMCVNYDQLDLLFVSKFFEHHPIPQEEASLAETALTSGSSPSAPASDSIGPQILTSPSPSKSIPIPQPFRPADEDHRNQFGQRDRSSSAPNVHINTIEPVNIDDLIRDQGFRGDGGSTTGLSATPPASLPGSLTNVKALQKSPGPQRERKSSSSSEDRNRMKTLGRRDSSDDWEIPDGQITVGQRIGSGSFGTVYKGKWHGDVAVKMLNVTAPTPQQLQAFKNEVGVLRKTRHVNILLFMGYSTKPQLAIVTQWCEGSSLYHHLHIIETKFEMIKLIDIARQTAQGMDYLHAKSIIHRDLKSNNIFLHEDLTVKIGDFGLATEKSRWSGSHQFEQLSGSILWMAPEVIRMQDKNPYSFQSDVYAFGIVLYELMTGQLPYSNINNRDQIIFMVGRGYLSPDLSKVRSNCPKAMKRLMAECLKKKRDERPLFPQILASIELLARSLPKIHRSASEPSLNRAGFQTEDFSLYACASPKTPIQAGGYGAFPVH

Row | SMILES | IC50 [1] | IC50 [2] | other results
1 | Cc1ncc(NC(=O)c2cccc(C(F)(F)F)c2)cc1-c1cc(N2CCOCC2)nc(N2CCC(O)C2)c1 (stereo not drawn) [Example 1131, N-(2′-(3-hydroxypyrrolidin-1-yl)-2-methyl-6′-morpholino-[3,4′-bipyridin]-5-yl)-3-(trifluoromethyl)benzamide] | 2.34 nM |  | 
2 | Cc1ccc(NC(=O)c2ccnc(C(F)(F)F)c2)cc1-c1cc(N2CCOCC2)nc(N(C)C)n1 [Example 758, N-(3-(2-(dimethylamino)-6-morpholinopyrimidin-4-yl)-4-methylphenyl)-2-(trifluoromethyl)isonicotinamide] |  | 2.8 nM | 
3 | Cc1ncc(NC(=O)c2ccnc(C3(C#N)CC3)c2)cc1-c1cnc(Cl)c(N2CCOCC2)c1 [Example 288, N-(6′-chloro-2-methyl-5-morpholino-[3,3′-bipyridin]-5-yl)-2-(1-cyanocyclopropyl)isonicotinamide] |  |  | IC50 (Table 2, 3 hours reaction): 6 nM
4 | Cc1ccc(NC(=O)c2cccc(-c3nnco3)c2)cc1-c1cc(N2CCOCC2)nc(N2CC(O)C2)c1 [Example 1100, N-(3-(2-(3-hydroxyazetidin-1-yl)-6-morpholinopyridin-4-yl)-4-methylphenyl)-3-(1,3,4-oxadiazol-2-yl)benzamide] | 3.89 nM |  | 
5 | CCOc1nnc(-c2cc(NC(=O)c3ccnc(C(C)(C)O)c3)ccc2C)cc1N1CCOCC1 [Example 569, N-(3-(6-ethoxy-5-morpholinopyridazin-3-yl)-4-methylphenyl)-2-(2-hydroxypropan-2-yl)isonicotinamide] |  | 2.8 nM | 
6 | Cc1ccc(NC(=O)c2ccnc(C3COC3)c2)cc1-c1cc(N2CCOCC2)c(=O)n(C)n1 [Example 648, N-(4-methyl-3-(1-methyl-5-morpholino-6-oxo-1,6-dihydropyridazin-3-yl)phenyl)-2-(oxetan-3-yl)isonicotinamide] |  | 4.5 nM | 
7 | Cc1ccc(NC(=O)c2ccnc(S(C)(=O)=O)c2)cc1-c1cc(N2CCOCC2)n(C)c(=O)c1 [Example 474, N-(4-methyl-3-(1-methyl-6-morpholino-2-oxo-1,2-dihydropyridin-4-yl)phenyl)-2-(methylsulfonyl)isonicotinamide] |  | 2.2 nM | 
8 | Cc1ccc(NC(=O)c2cc(C(F)(F)F)ccn2)cc1-c1cc(N2CCOCC2)c(OC2CCOCC2)nn1 [Example 580, N-(4-methyl-3-(5-morpholino-6-((tetrahydro-2H-pyran-4-yl)oxy)pyridazin-3-yl)phenyl)-4-(trifluoromethyl)picolinamide] |  | 0.5 nM | 
9 | Cc1ccc(NC(=O)c2ccnc(C(C)(C)F)c2)cc1-c1cc(C2COCCO2)nc(N2CCOCC2)c1 (stereo not drawn) [Example 1144, N-(3-(2-(1,4-dioxan-2-yl)-6-morpholinopyridin-4-yl)-4-methylphenyl)-2-(2-fluoropropan-2-yl)isonicotinamide] | 1.56 nM |  | 
10 | Cc1ncc(NC(=O)c2cccc(C(F)(F)F)c2)cc1-c1cc(N2CCOCC2)nc(N[C@H](C)CO)n1 [Example 748, (R)—N-(5-(2-((1-hydroxypropan-2-yl)amino)-6-morpholinopyrimidin-4-yl)-6-methylpyridin-3-yl)-3-(trifluoromethyl)benzamide] |  | 1.9 nM | 
11 | Cc1ncc(NC(=O)c2ccnc(C3CC3)c2)cc1-c1cc(N2CCOCC2)n(C)c(=O)c1 [Example 511, 2-cyclopropyl-N-(1′,2-dimethyl-6′-morpholino-2′-oxo-1′,2′-dihydro-[3,4′-bipyridin]-5-yl)isonicotinamide] |  | 6.4 nM | 
12 | Cc1ncc(NC(=O)c2ccnc(C(C)(C)C#N)c2)cc1-c1cnc(OC2CCOCC2)c(N2CCOCC2)c1 [Example 272, 2-(2-cyanopropan-2-yl)-N-(2-methyl-5′-morpholino-6′-((tetrahydro-2H-pyran-4-yl)oxy)-[3,3′-bipyridin]-5-yl)isonicotinamide] |  |  | IC50 (Table 2, 3 hours reaction): 6.3 nM
13 | Cc1ccc(NC(=O)c2ccnc(C(C)(C)C#N)c2)cc1-c1cncc(N2CCOCC2)n1 [Example 531, 2-(2-cyanopropan-2-yl)-N-(4-methyl-3-(6-morpholinopyrazin-2-yl)phenyl)isonicotinamide] |  | 5 nM | 
14 | Cc1ncc(NC(=O)c2cc(C(F)(F)F)ccn2)cc1-c1cc(N2CCOCC2)c2nccn2n1 [Example 868, N-(6-methyl-5-(8-morpholinoimidazo[1,2-b]pyridazin-6-yl)pyridin-3-yl)-4-(trifluoromethyl)picolinamide] | 1.3 nM |  | 
15 | Cc1ncc(NC(=O)c2cccc(C(F)(F)F)c2)cc1-c1cc(N2CCOCC2)c(OCC(F)F)nn1 [Example 918, N-(5-(6-(2,2-difluoroethoxy)-5-morpholinopyridazin-3-yl)-6-methylpyridin-3-yl)-3-(trifluoromethyl)benzamide] | 1.17 nM |  | 
16 | Cc1ncc(NC(=O)c2cccc(C(F)F)c2)cc1-c1cc(N2CCOCC2)c(=O)n(C)n1 [Example 681, 3-(difluoromethyl)-N-(6-methyl-5-(1-methyl-5-morpholino-6-oxo-1,6-dihydropyridazin-3-yl)pyridin-3-yl)benzamide] |  | 3.1 nM | 
17 | Cc1ccc(NC(=O)c2cccc(C3COC3)c2)cc1-c1cc(N2CCOCC2)n(C)c(=O)c1 [Example 492, N-(4-methyl-3-(1-methyl-6-morpholino-2-oxo-1,2-dihydropyridin-4-yl)phenyl)-3-(oxetan-3-yl)benzamide] |  | 3 nM | 

Row | SMILES | IC50 [1] | IC50 [2] | other results
18 | Cc1ccc(NC(=O)c2ccnc(C3CC3)c2)cc1-c1cc(OCCO)nc(N2CCOCC2)c1 [Example 1157, 2-cyclopropyl-N-(3-(2-(2-hydroxyethoxy)-6-morpholinopyridin-4-yl)-4-methylphenyl)isonicotinamide] | 0.43 nM |  | 
19 | Cc1ccc(NC(=O)c2cnnc(C(F)(F)F)c2)cc1-c1cnc(OC2CCOCC2)c(N2CCOCC2)c1 [Example 275, N-(4-methyl-3-(5-morpholino-6-((tetrahydro-2H-pyran-4-yl)oxy)pyridin-3-yl)phenyl)-6-(trifluoromethyl)pyridazine-4-carboxamide] |  |  | IC50 (Table 2, 3 hours reaction): 0.5 nM
20 | Cc1ccc(NC(=O)c2ccnc(C(C)(C)C#N)c2)cc1-c1nc(N2CCOCC2)c2[nH]ccc2n1 [Example 863, 2-(2-cyanopropan-2-yl)-N-(4-methyl-3-(4-morpholino-5H-pyrrolo[3,2-d]pyrimidin-2-yl)phenyl)isonicotinamide] | 2.8 nM |  | 
21 | Cc1ncc(NC(=O)c2ccnc(C(C)(C)F)c2)cc1-c1cnc(OCCO)c(N2CCOCC2)c1 [Example 299, 2-(2-fluoropropan-2-yl)-N-(6′-(2-hydroxyethoxy)-2-methyl-5′-morpholino-[3,3′-bipyridin]-5-yl)isonicotinamide] |  |  | IC50 (Table 2, 3 hours reaction): 6.9 nM
22 | Cc1ccc(C(=O)Nc2cccc(C(F)F)c2)cc1-c1cc(N2CCOCC2)c(=O)n(C)c1 [Example 430, N-(3-(difluoromethyl)phenyl)-4-methyl-3-(1-methyl-5-morpholino-6-oxo-1,6-dihydropyridin-3-yl)benzamide] |  |  | IC50 (Table 2, 3 hours reaction): 1.6 nM
23 | CCNc1nc(-c2cc(NC(=O)c3ccnc(C(C)(C)O)c3)cnc2C)cc(N2CCOCC2)n1 [Example 723, N-(5-(2-(ethylamino)-6-morpholinopyrimidin-4-yl)-6-methylpyridin-3-yl)-2-(2-hydroxypropan-2-yl)isonicotinamide] |  | 34.8 nM | 
24 | Cc1ncc(NC(=O)c2ccnc(C(F)F)c2)cc1-c1cnc(OC(F)F)c(N2CCOCC2)c1 [Example 982, N-(6′-(difluoromethoxy)-2-methyl-5′-morpholino-[3,3′-bipyridin]-5-yl)-2-(difluoromethyl)isonicotinamide] | 2.44 nM |  | 
25 | CCOc1ccc(-c2cc(NC(=O)c3ccnc(C(C)(F)F)c3)cnc2C)nc1N1CCOCC1 [Example 1028, 2-(1,1-difluoroethyl)-N-(5-ethoxy-2′-methyl-6-morpholino-[2,3′-bipyridin]-5′-yl)isonicotinamide] | 4.11 nM |  | 
26 | Cc1ncc(NC(=O)c2ccnc(C(C)(C)C#N)c2)cc1-c1cncc(N2CCOCC2)n1 [Example 532, 2-(2-cyanopropan-2-yl)-N-(6-methyl-5-(6-morpholinopyrazin-2-yl)pyridin-3-yl)isonicotinamide] |  | 7.7 nM | 
27 | Cc1ccc(NC(=O)c2ccnc(C(C)(C)O)c2)cc1-c1cc(N2CCOCC2)n2nccc2n1 [Example 794, 2-(2-hydroxypropan-2-yl)-N-(4-methyl-3-(7-morpholinopyrazolo[1,5-a]pyrimidin-5-yl)phenyl)isonicotinamide] |  | 2.6 nM | 
28 | Cc1ncc(NC(=O)c2cccc(C(F)(F)F)c2)cc1-c1cnc(OC2CCS(=O)(=O)CC2)c(N2CCOCC2)c1 [Example 1034, N-(6′-((1,1-dioxidotetrahydro-2H-thiopyran-4-yl)oxy)-2-methyl-5′-morpholino-[3,3′-bipyridin]-5-yl)-3-(trifluoromethyl)benzamide] | 1.59 nM |  | 
29 | Cc1ncc(NC(=O)c2ccnc(C(C)(C)C#N)c2)cc1-c1cc(N2CCOCC2)nc(N2CC(O)C2)c1 [Example 1083, 2-(2-cyanopropan-2-yl)-N-(2′-(3-hydroxyazetidin-1-yl)-2-methyl-6′-morpholino-[3,4′-bipyridin]-5-yl)isonicotinamide] | 35.2 nM |  | 
30 | Cc1ccc(NC(=O)c2ccnc(C(C)(F)F)c2)cc1-c1cnc(OC(C)C)c(N2CCOCC2)c1 [Example 945, 2-(1,1-difluoroethyl)-N-(3-(6-isopropoxy-5-morpholinopyridin-3-yl)-4-methylphenyl)isonicotinamide] | 1.35 nM |  | 
31 | Cc1ncc(NC(=O)c2cccc(C(F)(F)F)c2)cc1-c1cnc(OC(C)C)c(N2CCOCC2)c1 [Example 134, N-(6′-isopropoxy-2-methyl-5′-morpholino-[3,3′-bipyridin]-5-yl)-3-(trifluoromethyl)benzamide] |  |  | IC50 (Table 2, 3 hours reaction): 2.4 nM
32 | Cc1ccc(NC(=O)c2ccnc(C(F)F)c2)cc1-c1cc(N2CCOCC2)c(OC(C)C)nn1 [Example 593, 2-(difluoromethyl)-N-(3-(6-isopropoxy-5-morpholinopyridazin-3-yl)-4-methylphenyl)isonicotinamide] |  | 0.6 nM | 
33 | Cc1ncc(NC(=O)c2cccc(C(C)(C)S(C)(=O)=O)c2)cc1-c1cc(N2CCOCC2)n(C)c(=O)c1 [Example 512, N-(1′,2-dimethyl-6′-morpholino-2′-oxo-1′,2′-dihydro-[3,4′-bipyridin]-5-yl)-3-(2-(methylsulfonyl)propan-2-yl)benzamide] |  | 59.8 nM | 
